Target: ER (Homo sapiens (Human), UniProt P03372)
Experiment: Western blot analysis (Compounds B1-B278)
Type: cell-based
Conditions: ER degradation by traditional Western blot; DC50 classes
Description: Western Blot Analysis. The cells that are treated with the compounds are lysed in Radioimmunoprecipitation Assay Protein Lysis and Extraction Buffer (e.g., 25 mmol/L Tris.HCl, pH 7.6, 150 mmol/L NaCl, 1% Nonidet P-40, 1% sodium deoxycholate, and 0.1% sodium dodecyl sulfate) containing proteinase inhibitor cocktail. Equal amounts of total protein are electrophoresed through 10% SDS-polyacrylamide gels after determination of protein concentration by BCA assay. The separated protein bands are transferred onto PVDF membranes and blotted against different antibodies. The blots are scanned, and the band intensities are quantified (e.g., by using GelQuant.NET software provided by biochemlabsolutions.com). The relative mean intensity of target proteins is expressed after normalization to the intensity of glyceraldehyde-3-phosphate dehydrogenase bands.
Western Blot Analysis. Western blot analysis was performed essentially as described previously. The cells treated with indicated compounds were lysed in Radioimmunoprecipitation Assay Protein Lysis and Extraction Buffer (25 mmol/L Tris.HCl, pH 7.6, 150 mmol/L NaCl, 1% Nonidet P-40, 1% sodium deoxycholate, and 0.1% sodium dodecyl sulfate) containing proteinase inhibitor cocktail (Roche Diagnostics, Mannheim, Germany). Equal amounts of total protein were electrophoresed through 10% SDS-polyacrylamide gels after determination of protein concentration by BCA assay (Fisher Scientific, Pittsburgh, PA). The separated protein bands were transferred onto PVDF membranes (GE Healthcare Life Sciences, Marlborough, MA) and blotted against different antibodies, as indicated. The blots were scanned, and the band intensities were quantified using GelQuant.NET software provided by biochemlabsolutions.com. The relative mean intensity of target proteins was expressed after normalization to the intensity of glyceraldehyde-3-phosphate dehydrogenase bands.

Sequence of ER (P03372 whole entry): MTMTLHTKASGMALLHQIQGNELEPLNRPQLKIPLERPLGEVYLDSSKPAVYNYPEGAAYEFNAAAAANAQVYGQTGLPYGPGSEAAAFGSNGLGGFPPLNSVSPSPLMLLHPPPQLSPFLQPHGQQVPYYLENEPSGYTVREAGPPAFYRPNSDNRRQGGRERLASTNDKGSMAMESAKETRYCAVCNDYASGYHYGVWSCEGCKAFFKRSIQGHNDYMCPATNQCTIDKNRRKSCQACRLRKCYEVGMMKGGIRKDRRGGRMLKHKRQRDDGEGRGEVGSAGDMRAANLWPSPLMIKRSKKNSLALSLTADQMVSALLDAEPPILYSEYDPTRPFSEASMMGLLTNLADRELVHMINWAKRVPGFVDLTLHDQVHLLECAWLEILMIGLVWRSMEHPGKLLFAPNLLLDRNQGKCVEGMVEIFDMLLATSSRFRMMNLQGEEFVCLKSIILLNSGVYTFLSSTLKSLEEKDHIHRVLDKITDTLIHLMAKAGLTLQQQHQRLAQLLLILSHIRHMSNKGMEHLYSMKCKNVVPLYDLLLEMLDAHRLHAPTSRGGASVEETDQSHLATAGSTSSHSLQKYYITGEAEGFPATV

Compound | Traditional Western Degradation Potency
C[C@@H]1Cc2c([nH]c3ccccc23)[C@@H](c2c(F)cc(N3CCN(CCN4Cc5cc6c(cc5C4)C(=O)N(C4CCC(=O)NC4=O)C6)CC3)cc2F)N1CC(F)F (stereo partly drawn) [Compound B5, 3-(6-(2-(4-(4-((1R,3R)-2-(2,2-difluoroethyl)-3-methyl-2,3,4,9-tetrahydro-1H-pyrido[3,4-b]indol-1-yl)-3,5-difluorophenyl)piperazin-1-yl)ethyl)-1-oxo-3,5,6,7-tetrahydropyrrolo[3,4-f]isoindol-2(1H)-yl)piperidine-2,6-dione] | B (“B”: 10-100 nM)
C[C@@H]1Cc2c([nH]c3ccccc23)[C@@H](c2c(F)cc(N3CCC(N4CC(CC(=O)N5Cc6cc7c(cc6C5)C(=O)N(C5CCC(=O)NC5=O)C7=O)C4)CC3)cc2F)N1CC(F)F (stereo partly drawn) [Compound B6, 6-(2-(1-(1-(4-((1R,3R)-2-(2,2-difluoroethyl)-3-methyl-2,3,4,9-tetrahydro-1H-pyrido[3,4-b]indol-1-yl)-3,5-difluorophenyl)piperidin-4-yl)azetidin-3-yl)acetyl)-2-(2,6-dioxopiperidin-3-yl)-6,7-dihydropyrrolo[3,4-f]isoindole-1,3(2H,5H)-dione] | C (“C”: >100 nM)
C[C@@H]1Cc2c([nH]c3ccccc23)[C@@H](c2c(F)cc(N3CCC(N4CC(CC(=O)N5Cc6cc7c(cc6C5)C(=O)N(C5CCC(=O)NC5=O)C7)C4)CC3)cc2F)N1CC(F)F (stereo partly drawn) [Compound B7, 3-(6-(2-(1-(1-(4-((1R,3R)-2-(2,2-difluoroethyl)-3-methyl-2,3,4,9-tetrahydro-1H-pyrido[3,4-b]indol-1-yl)-3,5-difluorophenyl)piperidin-4-yl)azetidin-3-yl)acetyl)-1-oxo-3,5,6,7-tetrahydropyrrolo[3,4-f]isoindol-2(1H)-yl)piperidine-2,6-dione] | B (“B”: 10-100 nM)
C[C@@H]1Cc2c([nH]c3ccccc23)[C@@H](c2c(F)cc(N3CC4(CN(CC(=O)N5Cc6cc7c(cc6C5)C(=O)N(C5CCC(=O)NC5=O)C7)C4)C3)cc2F)N1CC(F)F (stereo partly drawn) [Compound B8, 3-(6-(2-(6-(4-((1R,3R)-2-(2,2-difluoroethyl)-3-methyl-2,3,4,9-tetrahydro-1H-pyrido[3,4-b]indol-1-yl)-3,5-difluorophenyl)-2,6-diazaspiro[3.3]heptan-2-yl)acetyl)-1-oxo-3,5,6,7-tetrahydropyrrolo[3,4-f]isoindol-2(1H)-yl)piperidine-2,6-dione] | A (“A”: <10 nM)
C[C@@H]1Cc2c([nH]c3ccccc23)[C@@H](c2c(F)cc(N3CC4(CCN(C(=O)CN5Cc6cc7c(cc6C5)C(=O)N(C5CCC(=O)NC5=O)C7)C4)C3)cc2F)N1CC(F)F (stereo partly drawn) [Compound B9, 3-(6-(2-(2-(4-((1R,3R)-2-(2,2-difluoroethyl)-3-methyl-2,3,4,9-tetrahydro-1H-pyrido[3,4-b]indol-1-yl)-3,5-difluorophenyl)-2,6-diazaspiro[3.4]octan-6-yl)-2-oxoethyl)-1-oxo-3,5,6,7-tetrahydropyrrolo[3,4-f]isoindol-2(1H)-yl)piperidine-2,6-dione] | A (“A”: <10 nM)
C[C@@H]1Cc2c([nH]c3ccccc23)[C@@H](c2c(F)cc(N3CCC4(CCN(C(=O)CN5Cc6cc7c(cc6C5)C(=O)N(C5CCC(=O)NC5=O)C7)C4)C3)cc2F)N1CC(F)F (stereo partly drawn) [Compound B11, 3-(6-(2-(7-(4-((1R,3R)-2-(2,2-difluoroethyl)-3-methyl-2,3,4,9-tetrahydro-1H-pyrido[3,4-b]indol-1-yl)-3,5-difluorophenyl)-2,7-diazaspiro[4.4]nonan-2-yl)-2-oxoethyl)-1-oxo-3,5,6,7-tetrahydropyrrolo[3,4-f]isoindol-2(1H)-yl)piperidine-2,6-dione] | B (“B”: 10-100 nM)
C[C@@H]1Cc2c([nH]c3ccccc23)[C@@H](c2c(F)cc(N3CC4(CCCN(C(=O)CN5Cc6cc7c(cc6C5)C(=O)N(C5CCC(=O)NC5=O)C7)C4)C3)cc2F)N1CC(F)F (stereo partly drawn) [Compound B12, 3-(6-(2-(2-(4-((1R,3R)-2-(2,2-difluoroethyl)-3-methyl-2,3,4,9-tetrahydro-1H-pyrido[3,4-b]indol-1-yl)-3,5-difluorophenyl)-2,6-diazaspiro[3.5]nonan-6-yl)-2-oxoethyl)-1-oxo-3,5,6,7-tetrahydropyrrolo[3,4-f]isoindol-2(1H)-yl)piperidine-2,6-dione] | C (“C”: >100 nM)
C[C@@H]1Cc2c([nH]c3ccccc23)[C@@H](c2c(F)cc(N3CCCC4(CN(C(=O)CN5Cc6cc7c(cc6C5)C(=O)N(C5CCC(=O)NC5=O)C7)C4)C3)cc2F)N1CC(F)F (stereo partly drawn) [Compound B13, 3-(6-(2-(6-(4-((1R,3R)-2-(2,2-difluoroethyl)-3-methyl-2,3,4,9-tetrahydro-1H-pyrido[3,4-b]indol-1-yl)-3,5-difluorophenyl)-2,6-diazaspiro[3.5]nonan-2-yl)-2-oxoethyl)-1-oxo-3,5,6,7-tetrahydropyrrolo[3,4-f]isoindol-2(1H)-yl)piperidine-2,6-dione] | B (“B”: 10-100 nM)
C[C@@H]1Cc2c([nH]c3ccccc23)[C@@H](c2c(F)cc(N3CC4(CN(C(=O)CN5Cc6cc7c(cc6C5)C(=O)N(C5CCC(=O)NC5=O)C7)C4)C3)cc2F)N1CC(F)F (stereo partly drawn) [Compound B14, 3-(6-(2-(6-(4-((1R,3R)-2-(2,2-difluoroethyl)-3-methyl-2,3,4,9-tetrahydro-1H-pyrido[3,4-b]indol-1-yl)-3,5-difluorophenyl)-2,6-diazaspiro[3.3]heptan-2-yl)-2-oxoethyl)-1-oxo-3,5,6,7-tetrahydropyrrolo[3,4-b]isoindol-2(1H)-yl)piperidine-2,6-dione] | A (“A”: <10 nM)
C[C@@H]1Cc2c([nH]c3ccccc23)[C@@H](c2c(F)cc(N3CCC4(CN(C(=O)CN5Cc6cc7c(cc6C5)C(=O)N(C5CCC(=O)NC5=O)C7)C4)C3)cc2F)N1CC(F)F (stereo partly drawn) [Compound B15, 3-(6-(2-(6-(4-((1R,3R)-2-(2,2-difluoroethyl)-3-methyl-2,3,4,9-tetrahydro-1H-pyrido[3,4-b]indol-1-yl)-3,5-difluorophenyl)-2,6-diazaspiro[3.4]octan-2-yl)-2-oxoethyl)-1-oxo-3,5,6,7-tetrahydropyrrolo[3,4-f]isoindol-2(1H)-yl)piperidine-2,6-dione] | A (“A”: <10 nM)
C[C@@H]1Cc2c([nH]c3ccccc23)[C@@H](c2c(F)cc(N3CC4(CCN(CC(=O)N5Cc6cc7c(cc6C5)C(=O)N(C5CCC(=O)NC5=O)C7)C4)C3)cc2F)N1CC(F)F (stereo partly drawn) [Compound B16, 3-(6-(2-(2-(4-((1R,3R)-2-(2,2-difluoroethyl)-3-methyl-2,3,4,9-tetrahydro-1H-pyrido[3,4-b]indol-1-yl)-3,5-difluorophenyl)-2,6-diazaspiro[3.4]octan-6-yl)acetyl)-1-oxo-3,5,6,7-tetrahydropyrrolo[3,4-f]isoindol-2(1H)-yl)piperidine-2,6-dione] | A (“A”: <10 nM)
C[C@@H]1Cc2c([nH]c3ccccc23)[C@@H](c2c(F)cc(N3CC4(CCN(CC(=O)N5Cc6cc7c(cc6C5)C(=O)N(C5CCC(=O)NC5=O)C7=O)C4)C3)cc2F)N1CC(F)F (stereo partly drawn) [Compound B17, 6-(2-(2-(4-((1R,3R)-2-(2,2-difluoroethyl)-3-methyl-2,3,4,9-tetrahydro-1H-pyrido[3,4-b]indol-1-yl)-3,5-difluorophenyl)-2,6-diazaspiro[3.4]octan-6-yl)acetyl)-2-(2,6-dioxopiperidin-3-yl)-6,7-dihydropyrrolo[3,4-f]isoindole-1,3(2H,5H)-dione] | B (“B”: 10-100 nM)
C[C@@H]1Cc2c([nH]c3ccccc23)[C@@H](c2c(F)cc(N3CCC4(CCN(CC(=O)N5Cc6cc7c(cc6C5)C(=O)N(C5CCC(=O)NC5=O)C7=O)C4)C3)cc2F)N1CC(F)F (stereo partly drawn) [Compound B19, 6-(2-(7-(4-((1R,3R)-2-(2,2-difluoroethyl)-3-methyl-2,3,4,9-tetrahydro-1H-pyrido[3,4-b]indol-1-yl)-3,5-difluorophenyl)-2,7-diazaspiro[4.4]nonan-2-yl)acetyl)-2-(2,6-dioxopiperidin-3-yl)-6,7-dihydropyrrolo[3,4-f]isoindole-1,3(2H,5H)-dione] | C (“C”: >100 nM)
C[C@@H]1Cc2c([nH]c3ccccc23)[C@@H](c2c(F)cc(N3CC4(CCN(C(=O)CN5Cc6cc7c(cc6C5)C(=O)N(C5CCC(=O)NC5=O)C7=O)C4)C3)cc2F)N1CC(F)F (stereo partly drawn) [Compound B20, 6-(2-(2-(4-((1R,3R)-2-(2,2-difluoroethyl)-3-methyl-2,3,4,9-tetrahydro-1H-pyrido[3,4-b]indol-1-yl)-3,5-difluorophenyl)-2,6-diazaspiro[3.4]octan-6-yl)-2-oxoethyl)-2-(2,6-dioxopiperidin-3-yl)-6,7-dihydropyrrolo[3,4-f]isoindole-1,3(2H,5H)-dione] | A (“A”: <10 nM)
